Results from PubChem BioAssay (NCI).
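1) Cells in 96-well plates. 2) Compound, 48 h, 5 concentrations. 3) Linear interpolation between surrounding doses. 4) Unreached endpoint = highest concentration. The concentration for 50% growth inhibition is given as GI50. The concentration for full growth arrest is given as TGI.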

Legend:
Experiment in all cases: NCI anticancer screen, dose series, 48 h
[1] = system: SN12C renal
[2] = system: SF-268 CNS
[3] = system: EKVX NSCLC
[4] = system: HS 578T breast
[5] = system: HOP-92 NSCLC
[6] = system: ACHN renal
[7] = system: COLO 205 colon
[8] = system: UO-31 renal
[9] = system: HCT-15 colon
[10] = system: CAKI-1 renal
[11] = system: MDA-MB-231 breast
[12] = system: HCT-116 colon
[13] = system: UACC-62 melanoma
[14] = system: HCC-2998 colon
[15] = system: IGROV1 ovarian
[16] = system: CCRF-CEM leukemia
[17] = system: MOLT-4 leukemia
[18] = system: SNB-75 CNS
[19] = system: SK-MEL-5 melanoma
[20] = system: SK-MEL-2 melanoma
[21] = system: RXF 393 renal
[22] = system: SK-MEL-28 melanoma
[23] = system: DU-145 prostate
[24] = system: A549 NSCLC
[25] = system: NCI-H522 lung
[26] = system: OVCAR-3 ovarian
[27] = system: 786-0 renal
[28] = system: U251 CNS
[29] = system: NCI-H23 lung
[30] = system: SNB-19 CNS
[31] = system: OVCAR-4 ovarian
[32] = system: SF-295 CNS
[33] = system: A498 renal
[34] = system: SK-OV-3 ovarian
[35] = system: MCF7 breast
[36] = system: K-562 leukemia
[37] = system: NCI-H226 lung
[38] = system: NCI/ADR-RES ovarian
[39] = system: BT-549 breast
[40] = system: HOP-62 NSCLC
[41] = system: SR leukemia
[42] = system: MALME-3M melanoma
[43] = system: HT29 colon
[44] = system: TK-10 renal
[45] = system: OVCAR-5 ovarian
[46] = system: UACC-257 melanoma
[47] = system: MDA-MB-435
[48] = system: LOX IMVI melanoma
[49] = system: SF-539 CNS
[50] = system: HL-60(TB) leukemia
[51] = system: NCI-H460 lung
[52] = system: SW-620 colon
[53] = system: PC-3 prostate
[54] = system: M14 melanoma
[55] = system: RPMI-8226 leukemia
[56] = system: OVCAR-8 ovarian

Work on `COc1cc2c(cc1O)CC[C@@H]1[C@@H]2CC[C@]2(C)[C@@H](OCCCN(C)C)CC[C@@H]12` yielded a GI50 [1] of 304 nM, a TGI [1] of 1080 nM and a GI50 [2] of 182 nM. It also gave a TGI [2] of 801 nM, a GI50 [3] of 208 nM and a TGI [3] of 958 nM. It also gave a GI50 [4] of 210 nM, a TGI [4] of 1190 nM and a GI50 [5] of 112 nM. For the same compound, the TGI [5] was 473 nM, the GI50 [6] was 164 nM and the TGI [6] was 527 nM. It also gave a GI50 [7] of 268 nM, a TGI [7] of 1030 nM and a GI50 [8] of 224 nM. The TGI [8] was 860 nM, the GI50 [9] was 125 nM and the TGI [9] was 558 nM. The GI50 [10] was 271 nM, the TGI [10] was 904 nM and the GI50 [11] was 104 nM. For the same compound, the TGI [11] was 219 nM, the GI50 [12] was 98.1 nM and the TGI [12] was 381 nM. For the same compound, the GI50 [13] was 110 nM, the TGI [13] was 269 nM and the GI50 [14] was 130 nM. It also gave a TGI [14] of 346 nM, a GI50 [15] of 523 nM and a TGI [15] of 1430 nM. It also gave a GI50 [16] of 178 nM, a TGI [16] of 556 nM and a GI50 [17] of 145 nM. For the same compound, the TGI [17] was 555 nM, the GI50 [18] was 76.8 nM and the TGI [18] was 273 nM. For the same compound, the GI50 [19] was 83.3 nM, the TGI [19] was 154 nM and the GI50 [20] was 76.9 nM. For the same compound, the TGI [20] was 198 nM, the GI50 [21] was 88.9 nM and the TGI [21] was 226 nM. It also gave a GI50 [22] of 102 nM, a TGI [22] of 243 nM and a GI50 [23] of 161 nM. It also gave a TGI [23] of 603 nM, a GI50 [24] of 165 nM and a TGI [24] of 650 nM. It also gave a GI50 [25] of 99.9 nM, a TGI [25] of 248 nM and a GI50 [26] of 155 nM. It also gave a TGI [26] of 543 nM, a GI50 [27] of 90.5 nM and a TGI [27] of 201 nM. It also gave a GI50 [28] of 126 nM, a TGI [28] of 334 nM and a GI50 [29] of 119 nM. For the same compound, the TGI [29] was 552 nM, the GI50 [30] was 303 nM and the TGI [30] was 1060 nM. For the same compound, the GI50 [31] was 180 nM, the TGI [31] was 871 nM and the GI50 [32] was 98 nM. It also gave a TGI [32] of 208 nM, a GI50 [33] of 278 nM and a TGI [33] of 901 nM. For the same compound, the GI50 [34] was 198 nM, the TGI [34] was 675 nM and the GI50 [35] was 148 nM. The TGI [35] was 439 nM, the GI50 [36] was 100 nM and the TGI [36] was 331 nM. The GI50 [37] was 617 nM, the TGI [37] was 1570 nM and the GI50 [38] was 133 nM. It also gave a TGI [38] of 440 nM, a GI50 [39] of 116 nM and a TGI [39] of 394 nM. It also gave a GI50 [40] of 182 nM, a TGI [40] of 728 nM and a GI50 [41] of 120 nM. It also gave a TGI [41] of 390 nM, a GI50 [42] of 90.2 nM and a TGI [42] of 194 nM. It also gave a GI50 [43] of 96.9 nM, a TGI [43] of 233 nM and a GI50 [44] of 154 nM. For the same compound, the TGI [44] was 496 nM, the GI50 [45] was 296 nM and the TGI [45] was 1140 nM. It also gave a GI50 [46] of 104 nM, a TGI [46] of 206 nM and a GI50 [47] of 89.9 nM. For the same compound, the TGI [47] was 182 nM, the GI50 [48] was 90.6 nM and the TGI [48] was 173 nM. The GI50 [49] was 86.7 nM, the TGI [49] was 172 nM and the GI50 [50] was 96.8 nM. It also gave a TGI [50] of 203 nM, a GI50 [51] of 163 nM and a TGI [51] of 550 nM. The GI50 [52] was 160 nM, the TGI [52] was 513 nM and the GI50 [53] was 183 nM. For the same compound, the TGI [53] was 748 nM, the GI50 [54] was 93.3 nM and the TGI [54] was 190 nM. The GI50 [55] was 126 nM, the TGI [55] was 301 nM and the GI50 [56] was 196 nM. For the same compound, the TGI [56] was 733 nM.
